Reference: PubChem BioAssay AID1963825 (Molecular Pharmacology Branch, DTP, NCI, 2024)

Assay: Anticancer human tumor 997537-175-T-J1-PDC patient-derived colon adenocarcinoma cell line growth inhibition [POLQ]
Details: 997537-175-T-J1-PDC complex spheroid viability, combination with POLQ inhibitors; for IC50: curve of first compound; for viability, T/C: stronger effect = lower value
Procedure, shortened: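 Three-cell-type spheroids modelling solid tumor plus stroma served as the readout system; POL inhibitors were tested individually and in combination, concentration ranges set by clinical Cmax where known.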

[1] = second compound 0.0316 µM, first compound 0.0316 µM
[2] = second compound 0.0316 µM, first compound 0.1 µM
[3] = second compound 0.0316 µM, first compound 0.316 µM
[4] = second compound 0.0316 µM, first compound 1 µM
[5] = second compound 0.0316 µM, first compound 3.16 µM
[6] = second compound 0.0316 µM, first compound 10 µM
[7] = second compound 0.1 µM, first compound 0.0316 µM
[8] = second compound 0.1 µM, first compound 0.1 µM
[9] = second compound 0.1 µM, first compound 0.316 µM
[10] = second compound 0.1 µM, first compound 1 µM
[11] = second compound 0.1 µM, first compound 3.16 µM
[12] = second compound 0.1 µM, first compound 10 µM
[13] = second compound 0.316 µM, first compound 0.0316 µM
[14] = second compound 0.316 µM, first compound 0.1 µM
[15] = second compound 0.316 µM, first compound 0.316 µM
[16] = second compound 0.316 µM, first compound 1 µM
[17] = second compound 0.316 µM, first compound 3.16 µM
[18] = second compound 0.316 µM, first compound 10 µM
[19] = second compound 1 µM, first compound 0.0316 µM
[20] = second compound 1 µM, first compound 0.1 µM
[21] = second compound 1 µM, first compound 0.316 µM
[22] = second compound 1 µM, first compound 1 µM
[23] = second compound 1 µM, first compound 3.16 µM
[24] = second compound 1 µM, first compound 10 µM
[25] = second compound 3.16 µM, first compound 0.0316 µM
[26] = second compound 3.16 µM, first compound 0.1 µM
[27] = second compound 3.16 µM, first compound 0.316 µM
[28] = second compound 3.16 µM, first compound 1 µM
[29] = second compound 3.16 µM, first compound 3.16 µM
[30] = second compound 3.16 µM, first compound 10 µM
[31] = second compound 10 µM, first compound 0.0316 µM
[32] = second compound 10 µM, first compound 0.1 µM
[33] = second compound 10 µM, first compound 0.316 µM
[34] = second compound 10 µM, first compound 1 µM
[35] = second compound 10 µM, first compound 3.16 µM
[36] = second compound 10 µM, first compound 10 µM
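Further: luminescence signal used as a surrogate for viable cells; spheroids exposed to drugs for seven days before readout.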

O=C(c1cc(Cc2n[nH]c(=O)c3ccccc23)ccc1F)N1CCN(C(=O)C2CC2)CC1 + Nc1ccc(C#CCN(C(=O)Cc2ncc(C(F)(F)F)cc2C(F)(F)F)c2ccc(F)cc2)nn1
IC50 (second compound 0.0316 µM): > 10 µM | IC50 (second compound 0.1 µM): > 10 µM | IC50 (second compound 0.316 µM): > 10 µM | IC50 (second compound 1 µM): > 10 µM | IC50 (second compound 3.16 µM): > 10 µM | IC50 (second compound 10 µM): > 10 µM | viability, T/C [1]: 108% | viability, T/C [2]: 104% | viability, T/C [3]: 100% | viability, T/C [4]: 99.9% | viability, T/C [5]: 95.3% | viability, T/C [6]: 82% | viability, T/C [7]: 108% | viability, T/C [8]: 103% | viability, T/C [9]: 94.4% | viability, T/C [10]: 93.7% | viability, T/C [11]: 84.6% | viability, T/C [12]: 94.8% | viability, T/C [13]: 106% | viability, T/C [14]: 111% | viability, T/C [15]: 104% | viability, T/C [16]: 98.3% | viability, T/C [17]: 93.5% | viability, T/C [18]: 98.9% | viability, T/C [19]: 104% | viability, T/C [20]: 98.2% | viability, T/C [21]: 103% | viability, T/C [22]: 104% | viability, T/C [23]: 93.2% | viability, T/C [24]: 99.3% | viability, T/C [25]: 96.7% | viability, T/C [26]: 94.4% | viability, T/C [27]: 98.8% | viability, T/C [28]: 90.1% | viability, T/C [29]: 98.5% | viability, T/C [30]: 95.3% | viability, T/C [31]: 108% | viability, T/C [32]: 103% | viability, T/C [33]: 97.3% | viability, T/C [34]: 91.3% | viability, T/C [35]: 112% | viability, T/C [36]: 98.9%

COc1cc(C2c3cc4c(cc3C(OC3OC5COC(C)OC5C(O)C3O)C3COC(=O)C23)OCO4)cc(OC)c1O (centres undefined) + Nc1ccc(C#CCN(C(=O)Cc2ncc(C(F)(F)F)cc2C(F)(F)F)c2ccc(F)cc2)nn1
IC50 (second compound 0.0316 µM): > 10 µM | IC50 (second compound 0.1 µM): > 10 µM | IC50 (second compound 0.316 µM): > 10 µM | IC50 (second compound 1 µM): > 10 µM | IC50 (second compound 3.16 µM): > 10 µM | IC50 (second compound 10 µM): 7.77 µM | viability, T/C [1]: 101% | viability, T/C [2]: 105% | viability, T/C [3]: 93.2% | viability, T/C [4]: 94.2% | viability, T/C [5]: 68% | viability, T/C [6]: 67.7% | viability, T/C [7]: 112% | viability, T/C [8]: 96.4% | viability, T/C [9]: 99.5% | viability, T/C [10]: 86% | viability, T/C [11]: 65.7% | viability, T/C [12]: 66.2% | viability, T/C [13]: 92.4% | viability, T/C [14]: 99.5% | viability, T/C [15]: 86.5% | viability, T/C [16]: 83.4% | viability, T/C [17]: 75.4% | viability, T/C [18]: 69.7% | viability, T/C [19]: 92.4% | viability, T/C [20]: 96.9% | viability, T/C [21]: 97.1% | viability, T/C [22]: 81% | viability, T/C [23]: 61% | viability, T/C [24]: 67.7% | viability, T/C [25]: 91.1% | viability, T/C [26]: 93.7% | viability, T/C [27]: 94.6% | viability, T/C [28]: 82.4% | viability, T/C [29]: 57.8% | viability, T/C [30]: 54.3% | viability, T/C [31]: 96% | viability, T/C [32]: 104% | viability, T/C [33]: 99.5% | viability, T/C [34]: 91% | viability, T/C [35]: 61.4% | viability, T/C [36]: 46.8%
